Experimental data from ChEMBL document CHEMBL4627395, “Cytotoxic Heptaketides from the Endolichenic Fungus Ulospora bilgramii” (J Nat Prod, 2020).
The source made the active and inactive calls. The calls are words filed in the database; no cut-off is given here.

Tests used:
KB = test: Cytotoxicity against human KB cells incubated for 48 hrs by MTT assay; type: functional, cell-based
A549 [1] = test: Cytotoxicity against human A549 cells incubated for 48 hrs by MTT assay; type: functional, cell-based; details: A549, 48 h
MCF7 = test: Cytotoxicity against human MCF7 cells incubated for 48 hrs by MTT assay; type: functional, cell-based; details: MCF7, 48 h
A549 [2] = test: Induction of apoptosis in human A549 cells assessed as late apoptotic cells at 13.6 uM after 24 hrs by Annexin-V-FITC/propidium iodide staining based flow cytometric method (reference value: 1.40%); type: functional
A549 [3] = test: Induction of ROS generation in human A549 cells incubated for 24 hrs by DCFH-DA staining-based flow cytometric analysis relative to control; type: functional, cell-based
A549 [4] = test: Induction of cell cycle arrest in human A549 cells assessed as accumulation at G2/M phase at 13.6 uM incubated for 24 hrs by flow cytometry (reference value: 10.38%); type: functional
A549 [5] = test: Induction of DNA damage in human A549 cells assessed as gammaH2AX accumulation incubated for 24 hrs by DAPI staining based Immunofluorescence method; type: functional, cell-based
A549 [6] = test: Induction of cell cycle arrest in human A549 cells assessed as accumulation at G2/M phase at 5 uM incubated for 24 hrs by flow cytometry (reference value: 10.38%); type: functional
A549 [7] = test: Induction of apoptosis in human A549 cells assessed as late apoptotic cells at 2.5 uM after 24 hrs by Annexin-V-FITC/propidium iodide staining based flow cytometric method (reference value: 1.40%); type: functional
A549 [8] = test: Induction of apoptosis in human A549 cells assessed as necrotic cells at 1.25 uM after 24 hrs by Annexin-V-FITC/propidium iodide staining based flow cytometric method (reference value: 1.12%); type: functional
A549 [9] = test: induction of morphological changes in human A549 cells assessed as appearance of apoptotic bodies at 1.25 to 5 uM incubated for 24 hrs by DAPI-staining based microscopic method; type: functional, cell-based
A549 [10] = test: Induction of cell cycle arrest in human A549 cells assessed as accumulation at G0/G1 phase at 1.25 uM incubated for 24 hrs by flow cytometry (reference value: 55.79%); type: functional
A549 [11] = test: Induction of apoptosis in human A549 cells assessed as necrotic cells at 5 uM after 24 hrs by Annexin-V-FITC/propidium iodide staining based flow cytometric method (reference value: 1.12%); type: functional
A549 [12] = test: Induction of apoptosis in human A549 cells assessed as early apoptotic cells at 1.25 uM after 24 hrs by Annexin-V-FITC/propidium iodide staining based flow cytometric method (reference value: 0.56%); type: functional
A549 [13] = test: Induction of cell cycle arrest in human A549 cells assessed as accumulation at G0/G1 phase at 2.5 uM incubated for 24 hrs by flow cytometry (reference value: 55.79%); type: functional
A549 [14] = test: Induction of ROS generation in human A549 cells assessed as increase in fluorescence intensity at 5 uM incubated for 24 hrs by DCFH-DA staining-based flow cytometric analysis relative to control; type: functional
A549 [15] = test: Induction of cell cycle arrest in human A549 cells assessed as accumulation at G0/G1 phase at 13.6 uM incubated for 24 hrs by flow cytometry (reference value: 55.79%); type: functional
A549 [16] = test: Induction of cell cycle arrest in human A549 cells assessed as accumulation at G0/G1 phase incubated for 24 hrs by flow cytometry; type: functional, cell-based
[17] = target: DNA topoisomerase 2-alpha (Homo sapiens) (UniProt P11388); test: Inhibition of human topoisomerase-2alpha expressed in baculovirus infected insect cells assessed as reduction in pBR322 DNA relaxation measured after 30 mins by ethidium bromide staining based agarose gel electrophoresis method relative to control
Sequence of DNA topoisomerase 2-alpha (Homo sapiens) (P11388 whole entry): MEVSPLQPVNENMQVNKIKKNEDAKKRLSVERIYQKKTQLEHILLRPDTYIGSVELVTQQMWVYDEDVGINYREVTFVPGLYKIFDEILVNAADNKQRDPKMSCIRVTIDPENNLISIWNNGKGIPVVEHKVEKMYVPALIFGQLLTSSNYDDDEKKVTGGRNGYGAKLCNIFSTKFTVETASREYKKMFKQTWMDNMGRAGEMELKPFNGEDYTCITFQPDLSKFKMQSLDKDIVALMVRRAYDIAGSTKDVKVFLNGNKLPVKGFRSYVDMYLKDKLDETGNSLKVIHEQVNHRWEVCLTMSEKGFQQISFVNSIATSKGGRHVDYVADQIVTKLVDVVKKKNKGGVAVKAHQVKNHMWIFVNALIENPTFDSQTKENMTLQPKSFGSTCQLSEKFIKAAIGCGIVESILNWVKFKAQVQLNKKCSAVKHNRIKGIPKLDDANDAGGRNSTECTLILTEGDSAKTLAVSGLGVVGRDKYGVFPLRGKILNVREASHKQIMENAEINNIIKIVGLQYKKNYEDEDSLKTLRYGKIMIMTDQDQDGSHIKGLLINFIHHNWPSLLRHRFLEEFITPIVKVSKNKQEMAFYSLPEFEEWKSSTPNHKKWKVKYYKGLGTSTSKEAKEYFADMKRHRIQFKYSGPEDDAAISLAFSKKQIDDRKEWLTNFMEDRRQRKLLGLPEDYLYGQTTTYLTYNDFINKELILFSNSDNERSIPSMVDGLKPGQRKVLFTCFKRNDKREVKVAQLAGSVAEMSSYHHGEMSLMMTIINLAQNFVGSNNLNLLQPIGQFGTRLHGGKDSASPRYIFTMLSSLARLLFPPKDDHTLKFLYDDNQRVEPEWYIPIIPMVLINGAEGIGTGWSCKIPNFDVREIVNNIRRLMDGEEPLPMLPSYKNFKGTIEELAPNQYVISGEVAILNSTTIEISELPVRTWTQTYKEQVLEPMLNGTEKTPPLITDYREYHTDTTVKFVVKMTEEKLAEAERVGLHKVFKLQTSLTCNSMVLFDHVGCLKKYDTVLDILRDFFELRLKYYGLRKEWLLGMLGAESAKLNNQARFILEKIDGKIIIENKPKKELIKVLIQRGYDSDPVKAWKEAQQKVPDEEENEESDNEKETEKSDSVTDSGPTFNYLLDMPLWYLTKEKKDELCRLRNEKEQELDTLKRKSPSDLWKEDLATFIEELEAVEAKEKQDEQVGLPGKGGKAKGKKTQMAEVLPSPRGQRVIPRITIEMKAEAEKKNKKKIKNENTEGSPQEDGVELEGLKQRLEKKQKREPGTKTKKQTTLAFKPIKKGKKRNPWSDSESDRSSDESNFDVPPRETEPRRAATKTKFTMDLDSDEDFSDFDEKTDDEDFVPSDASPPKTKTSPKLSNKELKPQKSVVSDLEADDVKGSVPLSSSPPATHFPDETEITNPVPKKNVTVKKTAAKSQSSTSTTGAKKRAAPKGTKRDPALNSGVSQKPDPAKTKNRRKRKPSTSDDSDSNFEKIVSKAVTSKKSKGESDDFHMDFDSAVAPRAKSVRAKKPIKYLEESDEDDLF

A549 [18] = test: Induction of apoptosis in human A549 cells assessed as early apoptotic cells at 13.6 uM after 24 hrs by Annexin-V-FITC/propidium iodide staining based flow cytometric method (reference value: 0.56%); type: functional
A549 [19] = test: Induction of apoptosis in human A549 cells assessed as necrotic cells at 2.5 uM after 24 hrs by Annexin-V-FITC/propidium iodide staining based flow cytometric method (reference value: 1.12%); type: functional
A549 [20] = test: Induction of cell cycle arrest in human A549 cells assessed as accumulation at S phase at 13.6 uM incubated for 24 hrs by flow cytometry (reference value: 33.65%); type: functional
A549 [21] = test: Induction of apoptosis in human A549 cells assessed as late apoptotic cells at 5 uM after 24 hrs by Annexin-V-FITC/propidium iodide staining based flow cytometric method (reference value: 1.40%); type: functional
A549 [22] = test: Induction of cell cycle arrest in human A549 cells assessed as accumulation at G0/G1 phase at 5 uM incubated for 24 hrs by flow cytometry (reference value: 55.79%); type: functional
A549 [23] = test: Induction of cell cycle arrest in human A549 cells assessed as accumulation at G2/M phase at 2.5 uM incubated for 24 hrs by flow cytometry (reference value: 10.38%); type: functional
A549 [24] = test: Induction of apoptosis in human A549 cells assessed as necrotic cells at 13.6 uM after 24 hrs by Annexin-V-FITC/propidium iodide staining based flow cytometric method (reference value: 1.12%); type: functional
A549 [25] = test: Induction of cell cycle arrest in human A549 cells assessed as accumulation at G2/M phase at 1.25 uM incubated for 24 hrs by flow cytometry (reference value: 10.38%); type: functional
A549 [26] = test: Induction of cell cycle arrest in human A549 cells assessed as accumulation at S phase at 5 uM incubated for 24 hrs by flow cytometry (reference value: 33.65%); type: functional
A549 [27] = test: Induction of apoptosis in human A549 cells after 24 hrs by Annexin-V-FITC/propidium iodide staining based flow cytometric method; type: functional, cell-based
A549 [28] = test: Induction of apoptosis in human A549 cells assessed as early apoptotic cells at 2.5 uM after 24 hrs by Annexin-V-FITC/propidium iodide staining based flow cytometric method (reference value: 0.56%); type: functional
A549 [29] = test: Induction of apoptosis in human A549 cells assessed as early apoptotic cells at 5 uM after 24 hrs by Annexin-V-FITC/propidium iodide staining based flow cytometric method (reference value: 0.56%); type: functional
A549 [30] = test: Induction of apoptosis in human A549 cells assessed as late apoptotic cells at 1.25 uM after 24 hrs by Annexin-V-FITC/propidium iodide staining based flow cytometric method (reference value: 1.40%); type: functional
A549 [31] = test: Induction of cell cycle arrest in human A549 cells assessed as accumulation at S phase at 1.25 uM incubated for 24 hrs by flow cytometry (reference value: 33.65%); type: functional
A549 [32] = test: Induction of cell cycle arrest in human A549 cells assessed as accumulation at S phase at 2.5 uM incubated for 24 hrs by flow cytometry (reference value: 33.65%); type: functional
A549 [33] = test: induction of morphological changes in human A549 cells assessed as cell shrinkage at 1.25 to 5 uM incubated for 24 hrs by DAPI-staining based microscopic method; type: functional

## COc1cc(C)c(Cc2c(C)cc(O)cc2OC)c(O)c1
KB
  IC50: > 40 µM
A549 [1]
  IC50: > 40 µM
MCF7
  IC50: > 40 µM

## COc1cc(O)c2c(c1)C(=O)C1=C(C2=O)[C@H](OC[C@@H]2C(=O)CC[C@@H]2C)OC(C)=C1
A549 [2]
  Activity: 5.02%
A549 [3]
  Activity: Dose-dependent effect
A549 [4]
  Activity: 44.81%
A549 [5]
  Activity: Dose-dependent effect
A549 [6]
  Activity: 1.11%
A549 [7]
  Activity: 2.69%
A549 [8]
  Activity: 0.73%
A549 [9]
  Activity: Active
KB
  IC50: 3 µM
A549 [10]
  Activity: 59.51%
A549 [11]
  Activity: 7.75%
A549 [12]
  Activity: 0.98%
A549 [13]
  Activity: 66.37%
A549 [14]
  fold change (FC): 5
A549 [15]
  Activity: 30.93%
A549 [16]
  Activity: Dose-dependent effect
A549 [1]
  IC50: 1.3 µM
[17]
  inhibition: Active
A549 [18]
  Activity: 6.79%
A549 [19]
  Activity: 1.3%
MCF7
  IC50: 1.3 µM
A549 [20]
  Activity: 24.26%
A549 [21]
  Activity: 10.75%
A549 [22]
  Activity: 69.15%
A549 [23]
  Activity: 3.56%
A549 [24]
  Activity: 2.15%
A549 [25]
  Activity: 7.18%
A549 [26]
  Activity: 29.74%
A549 [27]
  Activity: Dose-dependent effect
A549 [28]
  Activity: 0.87%
A549 [29]
  Activity: 1.8%
A549 [30]
  Activity: 1.14%
A549 [31]
  Activity: 33.31%
A549 [32]
  Activity: 30.07%
A549 [33]
  Activity: Active

## COc1cc(O)c2c(c1)C(=O)C1=C(C2=O)[C@H](OC[C@@H]2C(=O)CC[C@H]2C)OC(C)=C1
A549 [2]
  Activity: 5.02%
A549 [3]
  Activity: Dose-dependent effect
A549 [4]
  Activity: 44.81%
A549 [5]
  Activity: Dose-dependent effect
A549 [6]
  Activity: 1.11%
A549 [7]
  Activity: 2.69%
A549 [8]
  Activity: 0.73%
A549 [9]
  Activity: Active
KB
  IC50: 3 µM
A549 [10]
  Activity: 59.51%
A549 [11]
  Activity: 7.75%
A549 [12]
  Activity: 0.98%
A549 [13]
  Activity: 66.37%
A549 [14]
  fold change (FC): 5
A549 [15]
  Activity: 30.93%
A549 [16]
  Activity: Dose-dependent effect
A549 [1]
  IC50: 1.3 µM
[17]
  inhibition: Active
A549 [18]
  Activity: 6.79%
A549 [19]
  Activity: 1.3%
MCF7
  IC50: 1.3 µM
A549 [20]
  Activity: 24.26%
A549 [21]
  Activity: 10.75%
A549 [22]
  Activity: 69.15%
A549 [23]
  Activity: 3.56%
A549 [24]
  Activity: 2.15%
A549 [25]
  Activity: 7.18%
A549 [26]
  Activity: 29.74%
A549 [27]
  Activity: Dose-dependent effect
A549 [28]
  Activity: 0.87%
A549 [29]
  Activity: 1.8%
A549 [30]
  Activity: 1.14%
A549 [31]
  Activity: 33.31%
A549 [32]
  Activity: 30.07%
A549 [33]
  Activity: Active

## COc1cc(O)c2c(c1)[C@H](O)[C@H](C)CC2=O
KB
  IC50: > 40 µM
A549 [1]
  IC50: > 40 µM
MCF7
  IC50: > 40 µM

## COc1cc(O)c2c(c1)C(=O)C(CC(C)=O)=C(C)C2=O
KB
  IC50: > 40 µM
A549 [1]
  IC50: > 40 µM
MCF7
  IC50: > 40 µM

## COc1cc(O)c2c(c1)C(=O)C1=C(C2=O)C(OC)OC(C)=C1 (configuration not stated) [ASCOMYCONE A]
KB
  IC50: > 40 µM
A549 [1]
  IC50: > 40 µM
MCF7
  IC50: > 40 µM
